Results from PubChem BioAssay AID2060509 (Molecular Pharmacology Branch, DTP, NCI, 2025).

System: 485176-168-R4-J1-PDC spheroids with HUVEC/MSC, viability
Assay: Anticancer human tumor 485176-168-R4-J1-PDC patient-derived pancreatic adenocarcinoma cell line growth inhibition [GQUAD]
Conditions: for IC50: curve of first compound; for viability, T/C: stronger effect = lower value
From the text: DNA G-quadruplex Stabilizer Agents in Combinations in Complex Spheroids
A high-throughput screen of multi-cell type tumor spheroids was designed to identify active combinations of DNA G-quadruplex stabilizer agents and targeted small molecules. Complex spheroids include a stromal component modeled by human endothelial cells (HUVEC) and fibroblasts modeled by human mesenchymal stem cells (MSCs). The concentration ranges selected for each drug and investigational agent were based upon clinically achievable concentrations if the clinical Cmax of the agent was known.
Compounds. The drugs and investigational agents: pidnarulex (CX-5461; NSC782164), APTO-253 (NSC789042), BRACO-19 (NSC847499), peposertib (NSC802822), ceralasertib (NSC780249), elimusertib (NSC800525), camonsertib (NSC841442), AZD-1390 (NSC803789), olaparib (NSC753686), talazoparib (NSC767125), ART-558 (NSC835418), sotorasib (NSC818433), MRTX-1133 (NSC836407), SN-38 (NSC673596), topotecan (NSC609699), etoposide (NSC141540), doxorubicin (NSC123127), gemcitabine (NSC613327), 5-fluorouracil (NSC19893), paclitaxel (NSC125973), vemurafenib (NSC761431), panobinostat (NSC761190), R-306465 (JNJ-16241199; NSC773264), adavosertib (NSC754352), TP-3654 (NSC805149), carboplatin (NSC241240), KSQ-4279 (NSC840948), and staurosporine (NSC755774) were obtained from the National Cancer Institute (NCI) Developmental Therapeutics Program Chemical Repository (34). The FDA-approved anticancer drug set is available from the NCI Developmental Therapeutics Program. […] The stock solutions were prepared in dimethyl sulfoxide (DMSO, Sigma-Aldrich, St. Louis, MO, cat. D2650) at 800-fold the tested concentration and stored at -70 degrees C prior to their use. All drugs and investigational agents were tested over a range starting from a high concentration at or near the clinical Cmax and decreasing in half-log increments. If the clinical Cmax for an agent had not been determined, the highest concentration tested was 10 microM.
2.3 Cell Culture. All cells were maintained in an incubator at 37 degrees C and 5% CO2 with 95% humidity. The PDC lines were cultured according to standard operating procedures established by the NCI PDMR. All PDCs were thawed and cultured in Matrigel-coated flasks prepared with a working solution of 1X Ham's F-12 nutrient mix, without supplementation (Invitrogen, cat. 11765054), 100 U/mL penicillin-streptomycin (Invitrogen, cat. 15140122), and 2.5% Matrigel (Corning Inc., cat. 354248) for the first three passages. The 857933-349-R-J2-PDC line was cultured in 6C/Colon 1B media, which includes advanced DMEM/F-12 (Thermo Fisher Scientific, cat. 12634028), 10 mM HEPES (Thermo Fisher Scientific, cat. 15630080), 1X GlutaMAX supplement (Thermo Fisher Scientific, cat. 35050061), 0.1 mg/mL primocin (InvivoGen, cat. ant-pm-2), 10% defined fetal bovine serum, heat inactivated (HyClone Laboratories Inc., cat. SH30070.03HI), 50% L-WRN conditioned media (ATCC, cat. CRL-3276), 1.25 mM N-Acetyl-L-cysteine (Sigma-Aldrich, cat. A9165), 10 mM nicotinamide (Sigma-Aldrich, cat. N0636), 1X B-27 supplement (Thermo Fisher Scientific, cat. 17504044), 1X N-2 supplement (Thermo Fisher Scientific, cat. 17502048), 10 microM Y-27632 dihydrochloride (Tocris Bioscience, cat. 1254), and 50 ng/mL human EGF recombinant protein (Thermo Fisher Scientific, cat. PHG0311). The 485176-168-R4-J1-PDC line was cultured in Panc media, which includes all 6C/Colon 1B media components plus 100 ng/mL human FGF-10 (Thermo Fisher Scientific, cat. 100-26), 500 nM SB-431542 (Selleckchem, cat. S1067), and gastrin (Tocris, cat. 3006).
[…]
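Further: spheroids exposed to compounds for seven days before readout.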
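Wherever viability, T/C is given: percent viability relative to DMSO vehicle control wells as 100%.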

With `CC(=O)O[C@H]1C(=O)[C@@]2(C)[C@H]([C@H](OC(=O)c3ccccc3)[C@]3(O)C[C@H](OC(=O)[C@H](O)[C@@H](NC(=O)c4ccccc4)c4ccccc4)C(C)=C1C3(C)C)[C@]1(OC(C)=O)CO[C@@H]1C[C@@H]2O` + Cc1cnc(CNC(=O)c2c(=O)c3ccc(N4CCCN(C)CC4)nc3n3c2sc2ccccc23)cn1 as the compound, how does the IC50 (second compound 0.0316 µM) read?
The IC50 was under 31.6 nM.

What about the IC50 (second compound 0.1 µM) of the same compound?
Its IC50 is under 31.6 nM.

And the IC50 (second compound 0.316 µM)?
Its IC50 is under 31.6 nM.

What about the IC50 (second compound 1 µM) of the same compound?
The IC50 was under 31.6 nM.

And the IC50 (second compound 3.16 µM)?
Its IC50 is under 31.6 nM.

And the IC50 (second compound 10 µM)?
The IC50 was under 31.6 nM.

What about the viability, T/C (second compound 0.0316 µM, first compound 0.0316 µM) of the same compound?
The viability, T/C was 30%.

And the viability, T/C (second compound 0.0316 µM, first compound 0.1 µM)?
The viability, T/C was 13.6%.

And the viability, T/C (second compound 0.0316 µM, first compound 0.316 µM)?
Its viability, T/C is 11.2%.

And the viability, T/C (second compound 0.0316 µM, first compound 1 µM)?
The viability, T/C was 12.7%.

And the viability, T/C (second compound 0.0316 µM, first compound 3.16 µM)?
The viability, T/C was 10.6%.

And the viability, T/C (second compound 0.0316 µM, first compound 10 µM)?
Its viability, T/C is 9.91%.

And the viability, T/C (second compound 0.1 µM, first compound 0.0316 µM)?
The viability, T/C was 27.1%.

And the viability, T/C (second compound 0.1 µM, first compound 0.1 µM)?
Its viability, T/C is 19%.

And the viability, T/C (second compound 0.1 µM, first compound 0.316 µM)?
Its viability, T/C is 12%.

What about the viability, T/C (second compound 0.1 µM, first compound 1 µM) of the same compound?
Its viability, T/C is 12.8%.

And the viability, T/C (second compound 0.1 µM, first compound 3.16 µM)?
The viability, T/C was 11.7%.

And the viability, T/C (second compound 0.1 µM, first compound 10 µM)?
The viability, T/C was 9.87%.

What about the viability, T/C (second compound 0.316 µM, first compound 0.0316 µM) of the same compound?
The viability, T/C was 22%.

And the viability, T/C (second compound 0.316 µM, first compound 0.1 µM)?
The viability, T/C was 14.2%.

And the viability, T/C (second compound 0.316 µM, first compound 0.316 µM)?
The viability, T/C was 10.4%.

What about the viability, T/C (second compound 0.316 µM, first compound 1 µM) of the same compound?
Its viability, T/C is 11.8%.

What about the viability, T/C (second compound 0.316 µM, first compound 3.16 µM) of the same compound?
The viability, T/C was 13.8%.

And the viability, T/C (second compound 0.316 µM, first compound 10 µM)?
The viability, T/C was 12.9%.

What about the viability, T/C (second compound 1 µM, first compound 0.0316 µM) of the same compound?
Its viability, T/C is 23.1%.

And the viability, T/C (second compound 1 µM, first compound 0.1 µM)?
Its viability, T/C is 17.3%.

And the viability, T/C (second compound 1 µM, first compound 0.316 µM)?
Its viability, T/C is 17.5%.

What about the viability, T/C (second compound 1 µM, first compound 1 µM) of the same compound?
Its viability, T/C is 11.9%.

What about the viability, T/C (second compound 1 µM, first compound 3.16 µM) of the same compound?
The viability, T/C was 11.8%.

What about the viability, T/C (second compound 1 µM, first compound 10 µM) of the same compound?
Its viability, T/C is 14.7%.

What about the viability, T/C (second compound 3.16 µM, first compound 0.0316 µM) of the same compound?
The viability, T/C was 26%.

And the viability, T/C (second compound 3.16 µM, first compound 0.1 µM)?
The viability, T/C was 17.8%.

What about the viability, T/C (second compound 3.16 µM, first compound 0.316 µM) of the same compound?
Its viability, T/C is 12.8%.

What about the viability, T/C (second compound 3.16 µM, first compound 1 µM) of the same compound?
Its viability, T/C is 12.8%.

And the viability, T/C (second compound 3.16 µM, first compound 3.16 µM)?
Its viability, T/C is 15.3%.

What about the viability, T/C (second compound 3.16 µM, first compound 10 µM) of the same compound?
Its viability, T/C is 12.7%.

And the viability, T/C (second compound 10 µM, first compound 0.0316 µM)?
The viability, T/C was 23.4%.

What about the viability, T/C (second compound 10 µM, first compound 0.1 µM) of the same compound?
The viability, T/C was 14.8%.

And the viability, T/C (second compound 10 µM, first compound 0.316 µM)?
The viability, T/C was 14.5%.

What about the viability, T/C (second compound 10 µM, first compound 1 µM) of the same compound?
The viability, T/C was 12.9%.

And the viability, T/C (second compound 10 µM, first compound 3.16 µM)?
Its viability, T/C is 12.8%.

What about the viability, T/C (second compound 10 µM, first compound 10 µM) of the same compound?
Its viability, T/C is 11.2%.
